Source: patent US10377774B2 (JINAN UNIVERSITY, priority 2013, dated 2019)
Marks after values point to notes of the source that are not given here.

What was measured:
[1] = system: human melanoma cell line A375; experiment: MTT cell growth inhibition, A375; format: cell-based; details: Homo sapiens, A-375; A375, MTT assay, 72 h; read-out: IC50, growth of tumor cell line
Description: (§3) Experimental method: Cell lines (human non-small-cell lung cancer cell line A549, human colon cancer cell line LOVO, human nasopharyngeal carcinoma cell line CNE-2, human liver cancer cell line HepG2, human cervical carcinoma cell line Hela, human breast cancer cell lines MCF-7 and MDA-MB-231, human gastric carcinoma cell line NCI-N87, human prostatic cancer cell lines PC-3 and DU145, human leukemia cell line K562, human melanoma cell line A375, human neuroblastoma cell line SH-SY5H, human promyelocytic leukemia cell line HL-60, 5-FU-resistant human hepatocellular carcinoma cell line BEL-7402/5-Fu, doxorubicin-resistant hepatocellular carcinoma cell line HepG2/ADM, doxorubicin-resistant human breast cancer cell lines MCF-7/ADR) at logarithmic phase were resuspended in RPMI 1640 medium (containing 10% fetal bovine serum, 100 U/mL penicillin-streptomycin). Then, 100 μL of cells (cell concentration was 5×10^5/mL) were seeded into 96 wells plate. After 24 h incubation at 37° C. with 5% CO2, tested compounds were added (the control group without compound) for an additional 72 h incubation. After that, 30 μL of MTT [3-(4,5-Dimethylthiazol-2-yl)-2,5-diphenyltetrazolium bromide] solution (5 mg/mL) was added into each well and incubated for another 4 h at 37° C. and then the formazan crystals were solubilized with 100 μL DMSO. Finally, absorbance of each well was determined at 570 nm by a microplate reader (Thermo).
(§4) The concentration required to inhibit cell growth by 50% (IC50) was calculated from survival curves.

[2] = system: human promyelocytic leukemia cell line HL-60; experiment: MTT cell growth inhibition, HL-60; format: cell-based; details: Homo sapiens; HL-60, MTT assay, 72 h; read-out: IC50, growth of tumor cell line
[3] = system: human prostatic cancer cell line PC-3; experiment: MTT cell growth inhibition, PC-3; format: cell-based; details: Homo sapiens; PC-3, MTT assay, 72 h; read-out: IC50, growth of tumor cell line
Description: as §3, §4

[4] = system: human prostatic cancer cell line DU145; experiment: MTT cell growth inhibition, DU-145; format: cell-based; details: Homo sapiens; DU-145, MTT assay, 72 h; read-out: IC50, growth of tumor cell line
[5] = system: doxorubicin-resistant hepatocellular carcinoma cell line HepG2/ADM; experiment: MTT cell growth inhibition, HepG2/ADM; format: cell-based, human; details: Homo sapiens, MTT assay, 72 h, read-out: IC50, growth of tumor cell line
Description: as §3, §4

LOVO xenografts = LOVO xenografts in nude mice; format: in vivo; details: LOVO xenograft nude mice
Method: (§1) Experimental method: The MDA-MB-231 cells at logarithmic phase were digested and washed twice with PBS. Then, 100 μL cells (1×10^7) were inoculated subcutaneously on the backs of female BALB/nu/nu mice. After tumors grew to 70˜100 mm^3, the mice were divided randomly into saline group (control group), vinca alkaloids groups (VLB, CCRB, CCFN, CCXJ) and vinca alkaloid derivatives groups (JJ-CCJ, BX-CCJ, JJ-CCRB, BX-CCRB, JJ-CCFN, BX-CCFN, JJ-CCXJ and BX-CCXJ), with six mice per group. 1 mg/kg drugs were injected intraperitoneally every two days, meanwhile body weight and tumor sizes were measured. Experiment was ended after 8 times of drug administration, then tumor and organs were stripped. Tumor volumes were measured using the following formula: V=½(ab^2), whereas a refers to the longest diameter and b is the shortest diameter.
(§2) Tumor xenograft models of HepG2, LOVO, K562 and HL-60 cell lines were performed as the method described above.

[6] = system: 5-FU-resistant human hepatocellular carcinoma cell line BEL-7402/5-Fu; experiment: MTT cell growth inhibition, BEL-7402/5-Fu; format: cell-based; details: Homo sapiens, Bel7402/5-FU, MTT assay, 72 h, read-out: IC50, growth of tumor cell line
[7] = system: human breast cancer cell line MDA-MB-231; experiment: MTT cell growth inhibition, MDA-MB-231; format: cell-based; details: Homo sapiens; MDA-MB-231, MTT assay, 72 h; read-out: IC50, growth of tumor cell line
Description: as §3, §4

[8] = system: human nasopharyngeal carcinoma cell line CNE-2; experiment: MTT cell growth inhibition, CNE-2; format: cell-based; details: Homo sapiens; CNE-2, MTT assay, 72 h; read-out: IC50, growth of tumor cell line
MDA-MB-231 xenografts = MDA-MB-231 xenografts in nude mice; format: in vivo, BALB/nu/nu mice; details: MDA-MB-231 xenograft nude mice
Method: as §1

HepG2 xenografts = HepG2 xenografts in nude mice; format: in vivo; details: HepG2 xenograft nude mice
Method: as §1, §2

[9] = system: human breast cancer cell line MCF-7; experiment: MTT cell growth inhibition, MCF-7; format: cell-based; details: Homo sapiens, MCF7; MCF-7, MTT assay, 72 h; read-out: IC50, growth of tumor cell line
Description: as §3, §4

[10] = MTT cytotoxicity on normal cells, HUVEC; details: human, HUVEC (human umbilical vein endothelial cells)
Method: (§5) Then, 100 μL of cells (cell concentration was 5×10^5/mL) were seeded into 96 wells plate. After 24 h incubation at 37° C. with 5% CO2, tested compounds were added (the control group without compound) for an additional 72 h incubation. After that, 30 μL of MTT [3-(4,5-Dimethylthiazol-2-yl)-2,5-diphenyltetrazolium bromide] solution (5 mg/mL) was added into each well and incubated for another 4 h at 37° C. and then the formazan crystals were solubilized with 100 μL DMSO. Finally, absorbance of each well was determined at 570 nm by a microplate reader (Thermo).
(§6) The standard curve was drew with compound concentrations as the abscissa and cell growth inhibition rates as the ordinate. The concentration required to inhibit cell growth by 50% (IC50) was calculated from survival curves.
(§7) Experimental method: In vitro cytotoxicities of vinca alkaloids, hydrazinolyzed vinca alkaloids and vinca alkaloid dipeptide derivatives on human normal liver cells LO2 and human umbilical vein endothelial cells HUVEC were detected according to the method of Example 2.

[11] = system: human non-small-cell lung cancer cell line A549; experiment: MTT cell growth inhibition, A549; format: cell-based; details: Homo sapiens; A549, MTT assay, 72 h; read-out: IC50, growth of tumor cell line
Description: as §3, §4

[12] = system: human cervical carcinoma cell line Hela; experiment: MTT cell growth inhibition, Hela; format: cell-based; details: Homo sapiens, MTT assay, 72 h, read-out: IC50, growth of tumor cell line
[13] = system: human liver cancer cell line HepG2; experiment: MTT cell growth inhibition, HepG2; format: cell-based; details: Homo sapiens; HepG2, MTT assay, 72 h; read-out: IC50, growth of tumor cell line
Description: as §3, §4

[14] = system: human neuroblastoma cell line SH-SY5H; experiment: MTT cell growth inhibition, SH-SY5H; format: cell-based; details: Homo sapiens, Neuroblastoma cell, MTT assay, 72 h, read-out: IC50, growth of tumor cell line
Description: as §3, §4

HL-60 xenografts = HL-60 xenografts in nude mice; format: in vivo; details: HL-60 xenograft nude mice
Method: as §1, §2

[15] = MTT cytotoxicity on normal cells, LO2; details: human, LO2 cells (human normal liver cells)
Method: as §5, §6, §7

K562 xenografts = K562 xenografts in nude mice; format: in vivo; details: K562 xenograft nude mice
Method: as §1, §2

[16] = system: human colon cancer cell line LOVO; experiment: MTT cell growth inhibition, LOVO; format: cell-based; details: Homo sapiens; LOVO (FAPα positive), MTT assay, 72 h; read-out: IC50, growth of tumor cell line
Description: as §3, §4

[17] = system: human leukemia cell line K562; experiment: MTT cell growth inhibition, K562; format: cell-based; details: Homo sapiens; K562, MTT assay, 72 h; read-out: IC50, growth of tumor cell line
Description: as §3, §4

[18] = system: human gastric carcinoma cell line NCI-N87; experiment: MTT cell growth inhibition, NCI-N87; format: cell-based; details: Homo sapiens; NCI-N87, MTT assay, 72 h; read-out: IC50, growth of tumor cell line
[19] = system: doxorubicin-resistant human breast cancer cell lines MCF-7/ADR; experiment: MTT cell growth inhibition, MCF-7/ADR; format: cell-based; details: Homo sapiens, NCI/ADR-RES, MTT assay, 72 h, read-out: IC50, growth of tumor cell line
[20] = 1 mg/kg i.p. every two days, 8 administrations

| SMILES | IC50 [1] [nM] | IC50 [2] [nM] | IC50 [3] [nM] | IC50 [4] [nM] | IC50 [5] [nM] | IC50 [6] [nM] | IC50 [7] [nM] | IC50 [8] [nM] | IC50 [9] [nM] | IC50 at 72 h [10] [nM] | IC50 [11] [nM] | IC50 [12] [nM] | IC50 [13] [nM] | IC50 [14] [nM] | IC50 at 72 h [15] [nM] | IC50 [16] [nM] | IC50 [17] [nM] | IC50 [18] [nM] | also measured |
| --- | --- | --- | --- | --- | --- | --- | --- | --- | --- | --- | --- | --- | --- | --- | --- | --- | --- | --- | --- |
| CC[C@]1(O)C[C@@H]2CN(CCc3c([nH]c4ccccc34)[C@@](C(=O)OC)(c3cc4c(cc3OC)N(C)[C@H]3[C@@](O)(C(=O)NN)[C@H](O)[C@]5(CC)C=CCN6CC[C@]43[C@@H]65)C2)C1 [JJ-CCJ, hydrazinolyzed vinblastine] | 4.56 ± 0.57 | 8.65 ± 1.28 | 6.27 ± 0.61 | 5.33 ± 0.6 | 43.9 ± 3.77 | 80.3 ± 7.53 | 5.99 ± 3.29 | 7.14 ± 0.16 | 23.9 ± 3.07 | 36.1 ± 1 | 6.43 ± 2.42 | 14.5 ± 1.81 | 12.4 ± 0.72 | 6.24 ± 1.31 | 20.1 ± 0.97 | 32.9 ± 6.39 | 3.67 ± 0.79 | 17.4 ± 2.2 | Anti-tumor rate (%) (LOVO xenografts; 1 mg/kg): 77.71** %; Body weight (g) Post-dose (LOVO xenografts; 1 mg/kg): 17.3 ± 1.2 g; Tumor weight (LOVO xenografts; 1 mg/kg): 0.64 ± 0.21 g; Body weight (g) Pre-dose (LOVO xenografts; before dosing): 22.8 ± 1.7 g; Anti-tumor rate (%) (MDA-MB-231 xenografts; [20]): 87.74** %; Body weight (g) Post-dose (MDA-MB-231 xenografts; [20]): 16.4 ± 1.7 g; Tumor weight (MDA-MB-231 xenografts; [20]): 0.32 ± 0.03 g; Body weight (g) Pre-dose (MDA-MB-231 xenografts; before dosing): 20.3 ± 0.7 g; Anti-tumor rate (%) (HepG2 xenografts; 1 mg/kg): 77.65** %; Body weight (g) Post-dose (HepG2 xenografts; 1 mg/kg): 16.1 ± 0.3 g; Tumor weight (HepG2 xenografts; 1 mg/kg): 0.57 ± 0.7 g; Body weight (g) Pre-dose (HepG2 xenografts; before dosing): 21.7 ± 1.2 g; Anti-tumor rate (%) (HL-60 xenografts; 1 mg/kg): 69.23** %; Body weight (g) Post-dose (HL-60 xenografts; 1 mg/kg): 16.1 ± 0.4 g; Tumor weight (HL-60 xenografts; 1 mg/kg): 0.64 ± 0.17 g; Body weight (g) Pre-dose (HL-60 xenografts; before dosing): 20.1 ± 1.7 g; Anti-tumor rate (%) (K562 xenografts; 1 mg/kg): 68.45** %; Body weight (g) Post-dose (K562 xenografts; 1 mg/kg): 16.5 ± 0.8 g; Tumor weight (K562 xenografts; 1 mg/kg): 0.53 ± 0.19 g; Body weight (g) Pre-dose (K562 xenografts; before dosing): 22.1 ± 1.9 g |
| CC[C@]1(O)C[C@H]2CN(CCc3c([nH]c4ccccc34)[C@@](C(=O)OC)(c3cc4c(cc3OC)N(C=O)[C@H]3[C@@](O)(C(=O)OC)[C@H](OC(C)=O)[C@]5(CC)C=CCN6CC[C@]43[C@@H]65)C2)C1 [Vincristine, reference compound] | 0.95 ± 0.16 | 1.81 ± 0.17 | 2.93 ± 0.37 | 1.17 ± 0.31 | 7.78 ± 2.01 | 22.7 ± 3.37 | 1.03 ± 0.22 | 1.51 ± 0.76 | 2.74 ± 0.36 | 0.42 ± 0.09 | 1.32 ± 0.03 | 2.33 ± 0.77 | 0.97 ± 0.12 | 1.34 ± 0.21 | 0.21 ± 0.05 | 0.74 ± 0.09 | 1.07 ± 0.33 | 0.87 ± 0.26 | IC50 [19]: 9.67 ± 2.2 nM |
